The values below come from patent US8337828B2, “Use of thymosin alpha 1, alone or in combination with PTX3 or ganciclovir, for the treatment of cytomegalovirus infection” (priority 2006, dated 2012).

In assay [1] the test system is human non-small cell lung cancer ("NSCLC") cells. Conditions: subcutaneous administration; cited from earlier work.
The next assay relates to IRF7. The experiment in a line: Immunoblot analysis of nuclear IRF7 in DC subsets. The class given is cell-based, BALB/c mice. Conditions: pDC, 50 μg/ml, alone or in combination with virus. Here is the method:
(FIG. 3a) CD11b+DC or pDC were generated from bone marrow of BALB/c mice, infected with MCMV and assessed for morphology by light microscopy and viral replication by real-time PCR of MCMV gB transcripts expression (both at 48 h) or for IRF7 nuclear expression by immunobloting with anti-IRF7 (2 h later). Cells were exposed (+) or not (−) to 50 μg/ml Thymosin alpha 1 for 2 h at 37° C. before infection. − represents uninfected cells. The results shown represent one representative experiment out of 3.
Immunoblot analysis of IRF7. DC were exposed for […] 50 μg/ml Thymosin alpha 1 or 10^5 PFU MCMV, either alone or in combination. Nuclear extracts were prepared with NE-PER nuclear and cytoplasmic extraction reagents (Pierce, Celbio S.r.l., Milan, Italy) and the protein concentration of the nuclear extracts was determined with a BCA-200 protein assay kit (Pierce) following the manufacture's instructions. Nuclear content of IRF7 was determined by Western blot using rabbit anti-IRF7 (H246) antibody and bovine anti-rabbit-horseradish peroxidase (Santa Cruz Biotechnology). Visualization was performed with the ECL Western blotting analysis system from Amersham and Kodak Biomax films.
Background: Immunoblotting shows a protein as a band on a membrane.

The test system of another assay is spleen cells. The assay can be described thus: Cytokine levels in culture supernatants of spleen cells from MCMV-infected mice (ELISA). The format is in vivo. The text has this: Arrow indicates an inducible band. Lane 1, uninfected cells; lane 2, MCMV-infected; lane 3, Thymosin alpha 1 treated; lane 4, MCMV+Thymosin alpha 1 treated. (FIG. 3b) Cytokine production (pg/ml) by DC subsets treated as above. Bars indicate the standard errors. *P<0.05, cytokine production in MCMV-infected DC vs uninfected DC. **P<0.05, Thymosin alpha 1-treated vs untreated DC. (FIG. 3c) Cytokine production in mice during MCMV infection. Cytokine levels (pg/ml) in culture supernatants of spleen cells from mice with MCMV infection and treated for a week with Thymosin alpha 1 or GCV. *P<0.05, treated vs untreated mice. ND, not done.
Viral load (FIG. 4a) and cytokine production (FIG. 4b) in C57BL6, TLR4−/−, TLR9−/− and MyD88−/− mice infected with 5×10^5 PFU of MCMV and treated with 200 μg/kg Tα1 for a week. Virus titers, expressed as log 10, were quantified on MEF cells by standard plaque assay on infected tissues removed a week after infection and treatment. Cytokine (pg/ml) levels in culture supernatants of spleen cells were determined by ELISA assay. Bars indicate the standard errors. *P<0.05, Tα1-treated vs untreated mice. Results are representative of 3 independent experiments.
BALB/c or C57BL6 mice were infected with 10^5 or 5×10^5 PFU of MCMV, respectively. Virus titers, expressed as log 10, were quantified on MEF cells by standard plaque assay on lung tissues removed 7 days after the infection. Tα1 (200 μg/kg/daily for a week) and/or GCV (40 mg/kg, three times a week) were administered beginning the day of the infection. Cytokine (pg/ml) levels in culture supernatants of spleen cells (7 days) were determined by ELISA assay. Bars indicate the standard errors. *P<0.05, treated vs untreated mice. Results are representative of 3 independent experiments.
Quantification of cytokines by ELISA and ELISPOT assays. The levels of cytokines in the culture supernatants of mitogen-stimulated spleen cells (48 h stimulation with 10 μg/ml ConA) or MCMV-pulsed DC (24 h) were determined by ELISA (R&D Systems and PBL, Biomedical Lab, Milan, Italy). The detection limits (pg/ml) of the assays were <16 for IL-12 p70, <10 for IFN-., <3 for IL-10 and <10 for IFN-a. IFN-.-producing NK cells were enumerated by ELISPOT assay on purified NK (Virus Res. 2003; 98:17-467 25). Results are expressed as the mean number of cytokine-producing cells (±SE) per 10^5 cells, calculated using replicates of serial 2-fold dilutions of cells.

In the next assay the test system is NK cells. The format is in vivo, BALB/c mice. Conditions: 200 μg/kg for a week. Here is the method: Phenotypic analysis of total (FIG. 2a, FIG. 2b) or NK (FIG. 2c) cells from spleen of MCMV-infected BALB/c mice untreated (−) or treated (+) with 200 μg/kg Thymosin alpha 1 for a week; None represents uninfected mice. Numbers refer to the percentage of positive cells on FACS analysis, a week after the infection. Histograms are representative of 1 out of 4 independent experiments. (FIG. 2d) Cytotoxic activity (by standard 51Cr-release assay against YAC-1 targets) and frequency of IFN-.-producing NK cells by ELISPOT assay from mice treated as above. Bars indicate the standard errors. *P<0.05, infected vs uninfected mice. **P<0.05, Thymosin alpha 1-treated vs untreated infected mice. The results shown are from 5 independent experiments. Flow cytometry analyses. After blocking of FcRs with the anti-CD16/32 (2.4G2) antibody, cells were analyzed for antigen expression with a FACScan flow cytofluorometer (Becton Dickinson, Mountain View, Calif.) equipped with CELLQuest™ software. Control staining of cells with irrelevant Ab was used to obtain background fluorescence values. Abs were from PharMingen. NK cell cytotoxic activity. NK cells, purified from spleens by DX5 microbeads (Miltenyi Biotec), were defined as NK1.1+CD3-cells. NK cytolytic activity was assessed against 51 Cr-labeled YAC-1 lymphoma cells (Blood 2005; 106:4397-4406). Quantification of cytokines by ELISA and ELISPOT assays. The levels of cytokines in the culture supernatants of mitogen-stimulated spleen cells (48 h stimulation with 10 μg/ml ConA) or MCMV-pulsed DC (24 h) were determined by ELISA (R&D Systems and PBL, Biomedical Lab, Milan, Italy). The detection limits (pg/ml) of the assays were <16 for IL-12 p70, <10 for IFN-., <3 for IL-10 and <10 for IFN-a. IFN-.-producing NK cells were enumerated by ELISPOT assay on purified NK (Virus Res. 2003; 98:17-467 25). Results are expressed as the mean number of cytokine-producing cells (±SE) per 10^5 cells, calculated using replicates of serial 2-fold dilutions of cells.

The test system of assay [2] is methylcholanthrene-induced fibrosarcoma. Conditions: mouse, in vivo; cited from earlier work.
Where [3] appears, read: BALB/c mice with MCMV infection, particularly in the first weeks.
[4] abbreviates: spleen, MCMV-infected BALB/c mice.

Ends that are not written are not given here.

Consider “Ac-Ser-Asp-Ala-Ala-Val-Asp-Thr-Ser-Ser-Glu -Ile-Thr-Thr-Lys-Asp-Leu-Lys-Glu-Lys-Lys-Glu-Val-Glu-Glu-Ala-Glu-Asn-O (Ac-SDAAVDTSSEITTKDLKEKKEVEEAEN) [Thymosin alpha 1, acidic peptide present in thymus extract with immunoregulatory properties]”, for which the tumor volume entry in assay [1] is “significantly decreased tumor volume”. The “nuclear IRF7 expression (translocation)” value with IRF7 is on record as “translocation of IRF7”. Besides, the IL-10 production result with spleen cells (BALB/c mice with MCMV infection) was “dramatically increased”. Besides, in the assay with spleen cells (setting [3]), the IFN-. production entry was “significantly increased” and the IFN-a production result is recorded as “significantly increased”. Further, in the assay on spleen cells (BALB/c mice with MCMV infection, soon after treatment, declining thereafter), the IL-12p70 production result is “slightly increased”. Also, the “levels of IFN-α, IL-12p70 and IFN-. in supernatants of splenocytes” value in the assay on spleen cells (C57BL6 and TLR4-/- mice, 200 μg/kg for a week) is reported as “significantly increased”. The “frequency of IFN-.-producing cells (ELISPOT)” value in the assay with NK cells (ex-vivo purified splenic NK cells) is recorded as “significantly up-regulated”. In addition, in the assay with NK cells (setting [4]), the “expansion of CD4+ or CD8+ T cells” value was “not affecting the expansion”, the “expansion of NK1.1+ NK cells” value is recorded as “expanded” and the “expression of the activation marker CD69 on NK cells” value is on record as “increased expression”. In assay [2], the pulmonary metastases entry was “reduced”.
